Values after ≈ are worked out from the molar mass of the structure shown. Read-outs that look alike come from different tables or passages of the source. Blank lines part the entries; values can stand above or below the compound they belong to.
Assays:
Assay in all cases: MIC (Minimum Inhibitory Concentration)
Type in all cases: cell-based
Trichophyton violoceum = Trichophyton violoceum 442-62; read-out: MIC values
Excerpt: (§1) In addition they may be used for combatting plant diseases, in particular as fungicides. A list of MIC (Minimum Inhibitory Concentration) values for a number of microorganisms is listed herebelow. The figures in the column headings refer to the compounds prepared according to the experimental examples in comparison with the spectrum of 1-[2-(2,4-dichlorophenyl)-2-{(2,4-dichlorophenyl)-methoxy} -ethyl7-1H-imidazole (better known under the name of miconazole, c.f. Merck Index 9th Ed. page 6047) or natamycin (pimaricin, c.f. Merck Index 9th Ed. page 7233).

[1] = test system: Trichophyton schoenleinii; conditions: Trichophyton schoenleinii 435-63; read-out: MIC values
Excerpt: as §1

Candida albicans = test system: Candida albicans
Excerpt: as §1

Trichophyton equinum = test system: Trichophyton equinum
Excerpt: as §1

Trichophyton quickeaneum = Trichophyton quickeaneum A 2040; read-out: MIC values
Excerpt: as §1

Pasteurella multocida = conditions: read-out: MIC values
Excerpt: as §1

Trichophyton rubrum = test system: Trichophyton rubrum
Excerpt: as §1

Trichophyton tonsurans = Trichophyton tonsurans 561-50; read-out: MIC values
Excerpt: as §1

[2] = test system: Trichophyton mentagrophytus
Excerpt: as §1

[3] = test system: Streptococcus haemolyticus; conditions: read-out: MIC values
Excerpt: as §1

[4] = Candida albicans A 7, read-out: MIC values
[5] = Candida albicans A 3140, read-out: MIC values
[6] = Candida albicans A 3141, read-out: MIC values
[7] = Candida albicans A 3142, read-out: MIC values
[8] = Candida albicans A 3143, read-out: MIC values
[9] = Candida albicans A 3144, read-out: MIC values
[10] = Candida albicans A 3145, read-out: MIC values
[11] = Candida albicans A 3165, read-out: MIC values
[12] = Candida albicans A 3166, read-out: MIC values
[13] = Candida albicans A 3167, read-out: MIC values
[14] = Candida albicans A 3168, read-out: MIC values
[15] = Candida albicans A 3169, read-out: MIC values
[16] = Candida albicans A 3171, read-out: MIC values
[17] = Candida albicans A 3184, read-out: MIC values
[18] = Candida albicans A 3190, read-out: MIC values
[19] = Candida albicans A 3191, read-out: MIC values
[20] = Candida albicans A 3192, read-out: MIC values
[21] = Candida albicans A 3194, read-out: MIC values
[22] = Candida albicans A 3196, read-out: MIC values
[23] = Trichophyton equinum 182-76, read-out: MIC values
[24] = Trichophyton equinum 856-71, read-out: MIC values
[25] = Trichophyton rubrum 218-65, read-out: MIC values
[26] = Trichophyton rubrum 494-62, read-out: MIC values
[27] = Trichophyton rubrum A 810, read-out: MIC values
[28] = Trichophyton mentagrophytus 367-68, read-out: MIC values
[29] = Trichophyton mentagrophytus 421-67, read-out: MIC values
[30] = Trichophyton mentagrophytus A 3252, read-out: MIC values
[31] = Trichophyton mentagrophytus R 177, read-out: MIC values
[32] = Trichophyton mentagrophytus R 178, read-out: MIC values
[33] = Trichophyton mentagrophytus RRL 305, read-out: MIC values
[34] = Streptococcus haemolyticus A 1088

MIC (Trichophyton violoceum): 3 µg/mL (≈ 10.1 µM)
MIC [1]: 1.5 µg/mL (≈ 5.04 µM)
MIC (Candida albicans; [4]): 3 µg/mL (≈ 10.1 µM)
MIC (Candida albicans; [5]): 6 µg/mL (≈ 20.2 µM)
MIC (Candida albicans; [6]): 6 µg/mL (≈ 20.2 µM)
MIC (Candida albicans; [7]): 6 µg/mL (≈ 20.2 µM)
MIC (Candida albicans; [8]): 6 µg/mL (≈ 20.2 µM)
MIC (Candida albicans; [9]): 3 µg/mL (≈ 10.1 µM)
MIC (Candida albicans; [10]): 3 µg/mL (≈ 10.1 µM)
MIC (Candida albicans; [11]): 3 µg/mL (≈ 10.1 µM)
MIC (Candida albicans; [12]): 3 µg/mL (≈ 10.1 µM)
MIC (Candida albicans; [13]): 3 µg/mL (≈ 10.1 µM)
MIC (Candida albicans; [14]): 6 µg/mL (≈ 20.2 µM)
MIC (Candida albicans; [15]): 6 µg/mL (≈ 20.2 µM)
MIC (Candida albicans; [16]): 6 µg/mL (≈ 20.2 µM)
MIC (Candida albicans; [17]): 6 µg/mL (≈ 20.2 µM)
MIC (Candida albicans; [18]): 6 µg/mL (≈ 20.2 µM)
MIC (Candida albicans; [19]): 6 µg/mL (≈ 20.2 µM)
MIC (Candida albicans; [20]): 3 µg/mL (≈ 10.1 µM)
MIC (Candida albicans; [21]): 3 µg/mL (≈ 10.1 µM)
MIC (Candida albicans; [22]): 6 µg/mL (≈ 20.2 µM)
MIC (Trichophyton equinum; [23]): 12.5 µg/mL (≈ 42 µM)
MIC (Trichophyton equinum; [24]): 6 µg/mL (≈ 20.2 µM)
MIC (Trichophyton quickeaneum): 6 µg/mL (≈ 20.2 µM)
MIC (Pasteurella multocida; Pasteurella multocida A 723): 3 µg/mL (≈ 10.1 µM)
MIC (Trichophyton rubrum; [25]): 3 µg/mL (≈ 10.1 µM)
MIC (Trichophyton rubrum; [26]): 6 µg/mL (≈ 20.2 µM)
MIC (Trichophyton rubrum; [27]): 3 µg/mL (≈ 10.1 µM)
MIC (Trichophyton tonsurans): 0.1 µg/mL (≈ 0.336 µM)
MIC [2, 28]: 12.5 µg/mL (≈ 42 µM)
MIC [2, 29]: 6 µg/mL (≈ 20.2 µM)
MIC [2, 30]: 6 µg/mL (≈ 20.2 µM)
MIC [2, 31]: 3 µg/mL (≈ 10.1 µM)
MIC [2, 32]: 6 µg/mL (≈ 20.2 µM)
MIC [2, 33]: 25 µg/mL (≈ 84.1 µM)
Structure (SMILES): [C-]#[N+]C(=C(C)c1ccccc1)S(=O)(=O)c1ccc(C)cc1 [Example 12, 2-phenyl-1-isocyano-1-(4-toluenesulphonyl)-1-propene]
MIC [3, 34]: 50 µg/mL (≈ 168 µM)

MIC (Trichophyton violoceum): 3 µg/mL (≈ 10.2 µM)
MIC [1]: 1.5 µg/mL (≈ 5.11 µM)
MIC (Candida albicans; [4]): 3 µg/mL (≈ 10.2 µM)
MIC (Candida albicans; [5]): 3 µg/mL (≈ 10.2 µM)
MIC (Candida albicans; [6]): 3 µg/mL (≈ 10.2 µM)
MIC (Candida albicans; [7]): 3 µg/mL (≈ 10.2 µM)
MIC (Candida albicans; [8]): 3 µg/mL (≈ 10.2 µM)
MIC (Candida albicans; [9]): 6 µg/mL (≈ 20.4 µM)
MIC (Candida albicans; [10]): 6 µg/mL (≈ 20.4 µM)
MIC (Candida albicans; [11]): 3 µg/mL (≈ 10.2 µM)
MIC (Candida albicans; [12]): 3 µg/mL (≈ 10.2 µM)
MIC (Candida albicans; [13]): 3 µg/mL (≈ 10.2 µM)
MIC (Candida albicans; [14]): 3 µg/mL (≈ 10.2 µM)
MIC (Candida albicans; [15]): 3 µg/mL (≈ 10.2 µM)
MIC (Candida albicans; [16]): 3 µg/mL (≈ 10.2 µM)
MIC (Candida albicans; [17]): 3 µg/mL (≈ 10.2 µM)
MIC (Candida albicans; [18]): 3 µg/mL (≈ 10.2 µM)
MIC (Candida albicans; [19]): 6 µg/mL (≈ 20.4 µM)
MIC (Candida albicans; [20]): 3 µg/mL (≈ 10.2 µM)
MIC (Candida albicans; [21]): 3 µg/mL (≈ 10.2 µM)
MIC (Candida albicans; [22]): 3 µg/mL (≈ 10.2 µM)
MIC (Trichophyton equinum; [23]): 6 µg/mL (≈ 20.4 µM)
MIC (Trichophyton equinum; [24]): 12.5 µg/mL (≈ 42.6 µM)
MIC (Trichophyton quickeaneum): 6 µg/mL (≈ 20.4 µM)
MIC (Pasteurella multocida; Pasteurella multocida A 723): 3 µg/mL (≈ 10.2 µM)
MIC (Trichophyton rubrum; [25]): 1.5 µg/mL (≈ 5.11 µM)
MIC (Trichophyton rubrum; [26]): 12.5 µg/mL (≈ 42.6 µM)
MIC (Trichophyton rubrum; [27]): 1.5 µg/mL (≈ 5.11 µM)
MIC (Trichophyton tonsurans): 0.8 µg/mL (≈ 2.73 µM)
MIC [2, 28]: 6 µg/mL (≈ 20.4 µM)
MIC [2, 29]: 6 µg/mL (≈ 20.4 µM)
MIC [2, 30]: 12.5 µg/mL (≈ 42.6 µM)
MIC [2, 31]: 6 µg/mL (≈ 20.4 µM)
MIC [2, 32]: 12.5 µg/mL (≈ 42.6 µM)
MIC [2, 33]: 12.5 µg/mL (≈ 42.6 µM)
Structure (SMILES): [C-]#[N+]C(C1=CCSCC1)S(=O)(=O)c1ccc(C)cc1 (stereo not drawn) [Example 16b, a-(3,4-dehydrothian-4-yl)-a-(4-toluenesulphonyl)-methylisocyanide]
MIC [3, 34]: 50 µg/mL (≈ 170 µM)

Structure (SMILES): [C-]#[N+]C(=C1CCCCCC1)S(=O)(=O)c1ccc(C)cc1 [Example 18a, a-cycloheptylidene-a-(4-toluenesulphonyl)-methylisocyanide]
MIC (Candida albicans; read-out: MIC values, Candida albicans A 7): 1.5 µg/mL (≈ 5.18 µM)
MIC (Candida albicans; read-out: MIC values, Candida albicans A 3140): 1.5 µg/mL (≈ 5.18 µM)
MIC (Candida albicans; read-out: MIC values, Candida albicans A 3141): 3 µg/mL (≈ 10.4 µM)
MIC (Candida albicans; read-out: MIC values, Candida albicans A 3142): 1.5 µg/mL (≈ 5.18 µM)
MIC (Candida albicans; read-out: MIC values, Candida albicans A 3143): 1.5 µg/mL (≈ 5.18 µM)
MIC (Candida albicans; read-out: MIC values, Candida albicans A 3144): 3 µg/mL (≈ 10.4 µM)
MIC (Candida albicans; read-out: MIC values, Candida albicans A 3145): 3 µg/mL (≈ 10.4 µM)
MIC (Candida albicans; read-out: MIC values, Candida albicans A 3165): 1.5 µg/mL (≈ 5.18 µM)
MIC (Candida albicans; read-out: MIC values, Candida albicans A 3166): 3 µg/mL (≈ 10.4 µM)
MIC (Candida albicans; read-out: MIC values, Candida albicans A 3167): 0.75 µg/mL (≈ 2.59 µM)
MIC (Candida albicans; read-out: MIC values, Candida albicans A 3168): 0.75 µg/mL (≈ 2.59 µM)
MIC (Candida albicans; read-out: MIC values, Candida albicans A 3169): 3 µg/mL (≈ 10.4 µM)
MIC (Candida albicans; read-out: MIC values, Candida albicans A 3171): 1.5 µg/mL (≈ 5.18 µM)
MIC (Candida albicans; read-out: MIC values, Candida albicans A 3184): 3 µg/mL (≈ 10.4 µM)
MIC (Candida albicans; read-out: MIC values, Candida albicans A 3190): 3 µg/mL (≈ 10.4 µM)
MIC (Candida albicans; read-out: MIC values, Candida albicans A 3191): 3 µg/mL (≈ 10.4 µM)
MIC (Candida albicans; read-out: MIC values, Candida albicans A 3192): 1.5 µg/mL (≈ 5.18 µM)
MIC (Candida albicans; read-out: MIC values, Candida albicans A 3194): 1.5 µg/mL (≈ 5.18 µM)
MIC (Candida albicans; read-out: MIC values, Candida albicans A 3196): 3 µg/mL (≈ 10.4 µM)
MIC (Pasteurella multocida; Pasteurella multocida): 20 µg/mL (≈ 69.1 µM)
MIC ([3]; Streptococcus): 10 µg/mL (≈ 34.6 µM)

Source: patent EP0007672A1, “Isocyanoalkenes, process and useful intermediates for their preparation, pharmaceutical and fungicidal preparations containing those isocyanoalkenes and the use of the fungicidal preparations in agriculture” (GIST-BROCADES N.V., priority 1978, dated 1980)
